These are literature values, as cited in EP1526849B1 (A. MENARINI INDUSTRIE FARMACEUTICHE RIUNITE S.R.L., priority 2002, dated 2004).

For this data set the following is noted: gel with benzofenone-3 1%; 8 hours solar light; JP60155111 example 1.

For `CC(C(=O)O)c1cccc(C(=O)c2ccccc2)c1` (stereo not shown) [ketoprofen], the “percentage of ketoprofen not broken down” value is reported as 90%.
